Where two headings read alike, the source gives them in different places.
Columns and labels:
[1] = target: T1, human TDO (TDO-expressing HEK293 cells) (Homo sapiens, UniProt P48775); experiment: Cell based kynurenine assay, TDO-expressing HEK293 cell clones; conditions: TDO-expressing HEK293 cells, geometric mean, read-out: HEK293 TDO Kynurenine GMean IC50 (μM) (Cellular Assay)
T1 construct: expressed in transfected cells
In short: (§1)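 HEK293 clones stably expressing human IDO1 or human TDO (CMV promoter), 2.5×10^4 cells/well, given serial compound dilutions for 24 h. Kynurenine measured in supernatant; inhibition relative to cell/0.2% DMSO and media-only controls. IC50 by nonlinear regression.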

[2] = target: T2, Human Tryptophan 2,3-dioxygenase (TDO) (Homo sapiens, UniProt P48775); experiment: Human TDO enzymatic assay (kynurenine level); type: biochemical; conditions: 1 nM TDO, 350 μM L-Trp; geometric mean; read-out: TDO GMean: IC50 (μM) (Biochemical Assay)
T2 construct: His tag (N); made in house; host or cells: E. coli
T2 sequence (P48775 whole entry): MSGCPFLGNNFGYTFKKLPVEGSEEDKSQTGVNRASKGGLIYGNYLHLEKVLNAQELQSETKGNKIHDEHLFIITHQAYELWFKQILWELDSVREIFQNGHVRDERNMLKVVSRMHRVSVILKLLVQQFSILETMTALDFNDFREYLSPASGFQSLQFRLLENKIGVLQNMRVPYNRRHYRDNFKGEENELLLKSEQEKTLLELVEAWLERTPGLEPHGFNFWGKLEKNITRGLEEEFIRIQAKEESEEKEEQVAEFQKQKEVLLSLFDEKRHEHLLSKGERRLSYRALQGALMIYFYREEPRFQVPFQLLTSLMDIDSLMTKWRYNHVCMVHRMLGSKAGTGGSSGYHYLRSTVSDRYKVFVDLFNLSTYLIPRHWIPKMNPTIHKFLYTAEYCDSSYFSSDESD
In short: (§2)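 Compound is mixed with His-tagged enzyme from E. coli in pH 6.5 phosphate buffer containing ascorbate, methylene blue and catalase, at room temperature. IDO uses 6 nM enzyme and 10 μM Trp for 20 min. TDO uses 1 nM enzyme and 350 μM Trp for 70 min. TCA stops the reaction, and IC50 is derived from kynurenine levels.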

[3] = target: T3, human IDO (IDO1-expressing HEK293 cells) (Homo sapiens, UniProt P14902); experiment: Cell based kynurenine assay, IDO1-expressing HEK293 cell clones; conditions: IDO1-expressing HEK293 cells, geometric mean, read-out: HEK293 IDO1 Kynurenine GMean IC50 (μM) (Cellular Assay)
T3 construct: expressed in transfected cells
T3 sequence (P14902 whole entry): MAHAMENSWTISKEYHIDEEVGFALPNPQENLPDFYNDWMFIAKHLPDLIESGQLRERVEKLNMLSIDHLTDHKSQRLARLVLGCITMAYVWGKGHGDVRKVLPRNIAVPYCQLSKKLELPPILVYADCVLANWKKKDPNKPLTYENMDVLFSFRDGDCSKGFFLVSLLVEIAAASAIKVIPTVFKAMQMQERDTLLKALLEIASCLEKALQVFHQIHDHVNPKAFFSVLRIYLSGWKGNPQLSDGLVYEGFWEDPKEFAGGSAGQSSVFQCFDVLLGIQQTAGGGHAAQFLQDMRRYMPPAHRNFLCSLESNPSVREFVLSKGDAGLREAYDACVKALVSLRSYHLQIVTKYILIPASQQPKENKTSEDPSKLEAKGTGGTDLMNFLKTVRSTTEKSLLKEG
In short: as §1

[4] = target: T4, Human Indoleamine 2,3-dioxygenase (IDO) (Homo sapiens, UniProt P14902); experiment: Human IDO enzymatic assay (kynurenine level); type: biochemical; conditions: 6 nM IDO, 10 μM L-Trp; geometric mean; read-out: IDO1 GMean: IC50 (μM) (Biochemical Assay)
T4 construct: His tag (N); made in house; host or cells: E. coli
T4 sequence (P14902 whole entry): as above
In short: as §2

T1 sequence (P48775 whole entry): as the sequence (P48775 whole entry) above

Row | Structure (SMILES) | IC50 ([1]; 24 hours) [µM] | IC50 [2] [µM] | IC50 ([3]; 24 hours) [µM] | IC50 [4] [µM] | IC50 ([1]; 24 hours incubation) [µM] | IC50 ([3]; 24 hours incubation) [µM]
1 | O=C(NC1CCS(=O)(=O)CC1)N1CCC(C(F)(F)C(O)c2cc(Cl)cc3cn[nH]c23)CC1 (stereo not shown) [Compound P-0463, 4-(2-(5-chloro-1H-indazol-7-yl)-1,1-difluoro-2-hydroxyethyl)-N-(1,1-dioxidotetrahydro-2H-thiopyran-4-yl)piperidine-1-carboxamide] | > 10 | 0.0001 to 10 | 0.0001 to 10 | 0.0001 to 10 |  | 
2 | O=S(=O)(C1CC1)N1CCC2(CC1)CC(O)(c1cc(Cl)cc3cn[nH]c13)C2 [Compound P-0035, 2-(5-chloro-1H-indazol-7-yl)-7-(cyclopropylsulfonyl)-7-azaspiro[3.5]nonan-2-ol] |  | 0.0001 to 10 |  | 0.0001 to 10 | 0.0001 to 10 | > 10
3 | CNC(=O)N1CCC(C(C)(C)[C@H](O)c2cc(Cl)cc3cn[nH]c23)CC1 [Compound P-0445, (S)-4-(1-(5-chloro-1H-indazol-7-yl)-1-hydroxy-2-methylpropan-2-yl)-N-methylpiperidine-1-carboxamide] | 0.0001 to 10 | 0.0001 to 10 | 0.0001 to 10 | 0.0001 to 10 |  | 
4 | OC(CC1C2CCC1CNC2)c1cc(Cl)cc2cn[nH]c12 (stereo not shown) [Compound P-0274, 2-(3-azabicyclo[3.2.1]octan-8-yl)-1-(5-chloro-1H-indazol-7-yl)ethan-1-ol] |  | 10 to 100 |  | 10 to 100 | > 10 | > 10
5 | OC(c1c(F)c(Cl)cc2cn[nH]c12)C12CCC(C(F)(F)F)(CC1)CC2 (stereo not shown) [Compound P-0301, (5-chloro-6-fluoro-1H-indazol-7-yl)(4-(trifluoromethyl)bicyclo[2.2.2]octan-1-yl)methanol] |  | 0.0001 to 10 |  | 0.0001 to 10 | 0.0001 to 10 | 0.0001 to 10
6 | CC(C)(C(O)c1cc(Cl)cc2cn[nH]c12)[C@H]1C[C@H]2CC[C@@H](C1)N2C(=O)Nc1ccc(F)cc1 (stereo partly drawn) [Compound P-0440, (1R,3r,5S)-3-(1-(5-chloro-1H-indazol-7-yl)-1-hydroxy-2-methylpropan-2-yl)-N-(4-fluorophenyl)-8-azabicyclo[3.2.1] octane-8-carboxamide] | 0.0001 to 10 | 0.0001 to 10 | 0.0001 to 10 | 0.0001 to 10 |  | 
7 | N#Cc1ccc(NC(=O)N2CCC(C(F)(F)C(O)c3cc(Cl)cc4cn[nH]c34)CC2)cc1 (stereo not shown) [Compound P-0483, 4-(2-(5-chloro-1H-indazol-7-yl)-1,1-difluoro-2-hydroxyethyl)-N-(4-cyanophenyl) piperidine-1-carboxamide] | 0.0001 to 10 | 0.0001 to 10 | 0.0001 to 10 | 0.0001 to 10 |  | 
8 | OC(c1cc(Cl)cc2cn[nH]c12)C12CC(C1)C2 (stereo not shown) [Compound P-0209, bicyclo[1.1.1]pentan-1-yl(5-chloro-1H-indazol-7-yl)methanol] |  | 0.0001 to 10 |  | 0.0001 to 10 | 0.0001 to 10 | 0.0001 to 10
9 | CC(C)(C)OC(=O)N1CCC(C(F)(F)C(O)c2cc(Cl)cc3cn[nH]c23)CC1 (stereo not shown) [Compound P-0469, tert-butyl 4-(2-(5-chloro-1H-indazol-7-yl)-1,1-difluoro-2-hydroxyethyl) piperidine-1-carboxylate] | 0.0001 to 10 | 0.0001 to 10 | 0.0001 to 10 | 0.0001 to 10 |  | 
10 | COC(=O)N1CCC(C(F)(F)C(O)c2c(F)c(Cl)cc3cn[nH]c23)CC1 (stereo not shown) [Compound P-0342, methyl 4-(2-(5-chloro-6-fluoro-1H-indazol-7-yl)-1,1-difluoro-2-hydroxyethyl) piperidine-1-carboxylate] |  | 0.0001 to 10 |  | 0.0001 to 10 | 0.0001 to 10 | 0.0001 to 10
11 | O=C(Nc1ccccc1)N1CCC(C(F)(F)C(O)c2cc(Cl)cc3cn[nH]c23)CC1 (stereo not shown) [Compound P-0150, 4-(2-(5-chloro-1H-indazol-7-yl)-1,1-difluoro-2-hydroxyethyl)-N-phenylpiperidine-1-carboxamide] |  | 0.0001 to 10 |  | 0.0001 to 10 | 0.0001 to 10 | 0.0001 to 10
12 | OC(CC1CCCCC1)c1cccc2cncn12 (stereo not drawn) [Compound P-0079, 2-cyclohexyl-1-(imidazo[1,5-a]pyridin-5-yl)ethan-l-ol] |  | 0.0001 to 10 |  | 0.0001 to 10 | > 10 | 0.0001 to 10
13 | O=C(Cc1cccc(Cl)c1)N1CCC(C(F)(F)C(O)c2cc(Cl)cc3cn[nH]c23)CC1 (stereo not shown) [Compound P-0520, 1-(4-(2-(5-chloro-1H-indazol-7-yl)-1,1-difluoro-2-hydroxyethyl)piperidin-1-yl)-2-(3-chlorophenyl) ethan-1-one] | 0.0001 to 10 | 0.0001 to 10 | 0.0001 to 10 | 0.0001 to 10 |  | 
14 | COCC(=O)N1CCC(C(C)(C)[C@H](O)c2c(F)c(Cl)cc3cn[nH]c23)CC1 [Compound P-0506, (S)-1-(4-(1-(5-chloro-6-fluoro-1H-indazol-7-yl)-1-hydroxy-2-methylpropan-2-yl)piperidin-1-yl)-2-methoxyethan-1-one] | 0.0001 to 10 | 0.0001 to 10 | 0.0001 to 10 | 0.0001 to 10 |  | 
15 | CC(C)(C1CCN(C(=O)Nc2cccs2)CC1)C(O)c1cc(Cl)cc2cn[nH]c12 (stereo not shown) [Compound P-0470, 4-(1-(5-chloro-1H-indazol-7-yl)-1-hydroxy-2-methylpropan-2-yl)-N-(thiophen-2-yl)piperidine-1-carboxamide] | 0.0001 to 10 | 0.0001 to 10 | 0.0001 to 10 | 0.0001 to 10 |  | 
16 | CNC(=O)N1CC2CCC(C1)C2CC(O)c1cc(Cl)cc2cn[nH]c12 (stereo not shown) [Compound P-0127, 8-(2-(5-chloro-1H-indazol-7-yl)-2-hydroxyethyl)-N-methyl-3-azabicyclo[3.2.l]octane-3-carboxamide] |  | 0.0001 to 10 |  | 0.0001 to 10 | 0.0001 to 10 | 0.0001 to 10
17 | CC(C)(C1CCN(C(=O)CC2CCOCC2)CC1)C(O)c1cc(Cl)cc2cn[nH]c12 (stereo not shown) [Compound P-0443, 1-(4-(1-(5-chloro-1H-indazol-7-yl)-1-hydroxy-2-methylpropan-2-yl)piperidin-1-yl)-2-(tetrahydro-2H-pyran-4-yl)ethan-1-one] | 0.0001 to 10 | 0.0001 to 10 | 0.0001 to 10 | 0.0001 to 10 |  | 
18 | CS(=O)(=O)N1CCC(C(F)(F)C(O)c2cc(Cl)cc3cn[nH]c23)CC1 (stereo not shown) [Compound P-0270, 1-(5-chloro-1H-indazol-7-yl)-2,2-difluoro-2-(1-(methylsulfonyl)piperidin-4-yl)ethan-1-ol] |  | 0.0001 to 10 |  | 0.0001 to 10 | 0.0001 to 10 | 0.0001 to 10
19 | OC(c1cc(Cl)cc2cn[nH]c12)C12CCC(C(F)F)(CC1)CC2 (stereo not shown) [Compound P-0269, (5-chloro-1H-indazol-7-yl)(4-(difluoromethyl)bicyclo[2.2.2]octan-1-yl)methanol] |  | 0.0001 to 10 |  | 0.0001 to 10 | 0.0001 to 10 | 0.0001 to 10
20 | COC12CCC(C(O)c3cc(Cl)cc4[nH]ncc34)(CC1)CC2 (stereo not shown) [Compound P-0348, (6-chloro-1H-indazol-4-yl)(4-methoxybicyclo [2.2.2]octan-1-yl)methanol] |  | 0.0001 to 10 |  | 0.0001 to 10 | 0.0001 to 10 | > 10
21 | CC(C)CC(=O)N1CCC(C(F)(F)C(O)c2cc(Cl)cc3cn[nH]c23)CC1 (stereo not drawn) [Compound P-0148, 1-(4-(2-(5-chloro-1H-indazol-7-yl)-1,1-difluoro-2-hydroxyethyl)piperidin-l-yl)-3-methylbutan-1-one] |  | 0.0001 to 10 |  | 0.0001 to 10 | 0.0001 to 10 | 0.0001 to 10
22 | CCOC(=O)NC(=O)N1CCC(C(C)(C)[C@H](O)c2c(F)c(Cl)cc3cn[nH]c23)CC1 [Compound P-0513, ethyl (S)-(4-(1-(5-chloro-6-fluoro-1H-indazol-7-yl)-1-hydroxy-2-methylpropan-2-yl)piperidine-1-carbonyl)carbamate] | 0.0001 to 10 | 0.0001 to 10 | 0.0001 to 10 | 0.0001 to 10 |  | 
23 | CC(C)(C1CCN(C(=O)N2CCOCC2)CC1)C(O)c1cc(Cl)cc2cn[nH]c12 (stereo not shown) [Compound P-0391, (4-(1-(5-chloro-1H-indazol-7-yl)-1-hydroxy-2-methylpropan-2-yl)piperidin-1-yl)(morpholino) methanone] |  | 0.0001 to 10 |  | 0.0001 to 10 | 0.0001 to 10 | 0.0001 to 10
24 | OC(c1cccc2cncn12)C1CCCCC1 (stereo not shown) [Compound P-0060, cyclohexyl(imidazo[1,5-a]pyridin-5-yl)methanol] |  | 0.0001 to 10 |  | 0.0001 to 10 | > 10 | 0.0001 to 10
25 | CC(C)(C1CCS(=O)(=O)CC1)C(O)c1cc(Cl)cc2cn[nH]c12 (stereo not shown) [Compound P-0297, 4-(1-(5-chloro-1H-indazol-7-yl)-1-hydroxy-2-methylpropan-2-yl)tetrahydro-2H-thiopyran 1,1-dioxide] |  | 0.0001 to 10 |  | 0.0001 to 10 | 0.0001 to 10 | 0.0001 to 10
